Assay results: patent US20240254077A1, “METHODS OF TREATING CHRONIC OBSTRUCTIVE PULMONARY DISEASE INCLUDING COMPOUNDS USEFUL THEREIN” (The Trustees of Columbia University in the City of New York, priority 2021, published 2024)
Entries after “also recorded” stand apart in the source; their conditions may differ. Read-outs that look alike come from different tables or passages of the source.

Legend:
[1] = tested on: MMP1; assay: MMP1 concentration, fluoxetine derivatives on SAEC (FIG. 6); format: cell-based, human
Source text: FIG. 6: MMP1 activity—fluoexetine derivatives on SAEC. Comparison of Derivatives 1-6 on MMP1 concentration.

[2] = tested on: MMP-1; assay: MMP-1 expression and secretion in CSE exposed small airway epithelial cell (SAEC) cultures; format: cell-based, human; settings: for MMP1 expression / MMP1 induction: SAEC, 5% CSE, varying doses (dose response)
Procedure: FIG. 2: Fluoxetine inhibits MMP-1 production and TLR-4 signaling in CSE exposed SAEC cultures.
(A) Fluoxetine. (B) Derivative 2. (C) Derviative 5. SAEC cultures were treated with 5% CSE and varying doses of Fluoxetine, Derivative 2 and Derivative 5, respectively. Treatment with the derivatives decreased MMP1 induction after cigarette smoke treatment.
The compounds in this clinical set have all been tested and utilized in humans for various indications. These molecules were tested for their capacity to modulate MMP-1 smoke induced transcriptional activation. […] Prior work in our lab was critical in establishing MMP-1 as a destructive agent in the progression of COPD in humans. As such, we next exposed human small airway epithelial cells to cigarette smoke extract followed by treatment with fluoxetine.
Aim 1b: Determining if potential CL(s) maintain their ability to inactivate MMP1 transcription and inflammatory pathways via inhibition of TLR4 signaling in human small airway epithelial cells. For each positive hit and fluoxetine, the DRC is used to derive their respective IC50's and Hill slopes. The concentration required to achieve a 50%, 75% and 99.9% fractional effect is calculated using the formula: [Cf]=[(fraction/100-fraction) ^(1/Hill slope)]IC50. The effect of each calculated concentration on cell viability is tested in triplicate on primary human small airway epithelial cell (hSAEC) culture via MTT assay. […] The chosen concentrations are tested on SAEC cultures exposed to 5% cigarette smoke extract for 24 h to assess their effects on MMP1 and TLR4 expression via mRNA extraction to analyze transcript levels by real-time RT-PCR. Culture media is collected and MMP1 secretion assessed by ELISA (R&D Systems, MN). Protein collected for western blot is used to assess IRAK phosphorylation, a known downstream effector of TLR4 activity. In addition, PCR arrays (ThermoFisher, MA) that measure the expression of cytokines that have been implicated in the pathogenesis of COPD, their receptors and the expression of transcription factors that regulate the cellular response to oxidants and CSE exposure are used to determine the ability of each derivative to suppress inflammatory signaling in smoke exposed cells.
SAEC cultures were treated with 5% CSE and varying doses of Fluoxetine, Derivative 2 and Derivative 5, respectively. Treatment with the derivatives decreased MMP1 induction after cigarette smoke treatment.

[3] = tested on: IL-8; assay: IL-8 expression in CSE treated SAEC, dose response; format: cell-based, human; settings: 5% CSE, varying doses
[4] = tested on: MMP1 promoter; assay: MMP1 promoter luciferase reporter screen in CSE-treated transfected HEK 293T cells; format: cell-based, human; settings: NIH clinical collection screen
Procedure: (§1) These molecules were tested for their capacity to modulate MMP-1 smoke induced transcriptional activation. […] As such, we next exposed human small airway epithelial cells to cigarette smoke extract followed by treatment with fluoxetine.

[5] = tested on: smoke exposed rabbits; settings: cigarette smoke 16 weeks, oral; for mean linear intercept (morphometric analysis): versus smoke alone
Source text: (C) Representative H&E stains for each treatment group.
As the next step, we observed the ability of oral duloxetine to inhibit cigarette smoke induced up-regulation of MMP1 and lung destruction in a rabbit model. Rabbits were utilized for these experiments since unlike mice they produce MMP-1. Rabbits were exposed to cigarette smoke for 16 weeks while receiving placebo or orally administered duloxetine.
To assess the effects of SSRIs on the cigarette smoke induced inflammatory response, we utilized smoke-exposed mice.

[6] = tested on: TLR-4; assay: TLR-4 signaling (TLR-4 expression, phospho-IRAK) in CSE exposed SAEC cultures; format: cell-based, human
Procedure: as §1
For each positive hit and fluoxetine, the DRC is used to derive their respective IC50's and Hill slopes. The concentration required to achieve a 50%, 75% and 99.9% fractional effect is calculated using the formula: [Cf]=[(fraction/100-fraction) ^(1/Hill slope)]IC50. The effect of each calculated concentration on cell viability is tested in triplicate on primary human small airway epithelial cell (hSAEC) culture via MTT assay. […] The chosen concentrations are tested on SAEC cultures exposed to 5% cigarette smoke extract for 24 h to assess their effects on MMP1 and TLR4 expression via mRNA extraction to analyze transcript levels by real-time RT-PCR. Culture media is collected and MMP1 secretion assessed by ELISA (R&D Systems, MN). Protein collected for western blot is used to assess IRAK phosphorylation, a known downstream effector of TLR4 activity.

[7] = tested on: smoke exposed mice; assay: Cigarette smoke exposed mice, inflammatory BALF cell counts; format: in vivo, mouse; settings: cigarette smoke 10 days, oral
Source text: FIG. 4: Oral fluoxetine treatment in smoke exposed mice reduces inflammatory BALF cell counts. […] (B) Representative cytospin DifQuik stains for each experimental group.

Structure (SMILES): CCCCN(C)CCC(Oc1ccc(C(F)(F)F)cc1)c1ccccc1 (stereo not shown) [Derivative 1, N-methyl-N-(3-phenyl-3-(4-(trifluoromethyl)phenoxy)propyl)butan-1-amine]
- MMP1 concentration ([1]; 5 μM): significantly decreasd MMP1 concentrations
- MMP1 concentration ([1]; 10 μM): significantly decreasd MMP1 concentrations

Structure (SMILES): CCNC(=O)N(C)CCC(Oc1ccc(C(F)(F)F)cc1)c1ccccc1 (stereo not shown) [Derivative 2, 3-ethyl-1-methyl-1-(3-phenyl-3-(4-(trifluoromethyl)phenoxy)propyl)urea]
- MMP1 expression / MMP1 induction [2]: reduces MMP1 expression
- IL-8 expression [3]: reduces IL-8 expression
- MMP1 concentration ([1]; 5 μM): significantly decreasd MMP1 concentrations
- MMP1 concentration ([1]; 10 μM): significantly decreasd MMP1 concentrations

Structure (SMILES): CCNC(=S)N(C)CCC(Oc1ccc(C(F)(F)F)cc1)c1ccccc1 (stereo not shown) [Derivative 3, 3-ethyl-1-methyl-1-(3-phenyl-3-(4-(trifluoromethyl)phenoxy)propyl)thiourea]
- MMP1 concentration ([1]; 2 μM): did not show any reduction of MMP1
- MMP1 concentration ([1]; 5 μM): did not show any reduction of MMP1
- MMP1 concentration ([1]; 10 μM): significant reduction of MMP1

Structure (SMILES): CCC(=O)N(C)CCC(Oc1ccc(C(F)(F)F)cc1)c1ccccc1 (stereo not shown) [Derivative 4, N-methyl-N-(3-phenyl-3-(4-(trifluoromethyl)phenoxy)propyl)propionamide]
- MMP1 concentration ([1]; 2 μM): did not show any reduction of MMP1
- MMP1 concentration ([1]; 5 μM): did not show any reduction of MMP1
- MMP1 concentration ([1]; 10 μM): did not show any reduction of MMP1

Structure (SMILES): Cc1ccc(S(=O)(=O)N(C)CCC(Oc2ccc(C(F)(F)F)cc2)c2ccccc2)cc1 (stereo not shown) [Derivative 5, N,4-dimethyl-N-(3-phenyl-3-(4-(trifluoromethyl)phenoxy)propyl)benzenesulfonamide]
- MMP1 expression / MMP1 induction [2]: reduces MMP1 expression
- IL-8 expression [3]: reduces IL-8 expression
- MMP1 concentration ([1]; 5 μM): significantly decreasd MMP1 concentrations
- MMP1 concentration ([1]; 10 μM): significantly decreasd MMP1 concentrations

Structure (SMILES): CN(CCC(Oc1ccc(C(F)(F)F)cc1)c1ccccc1)S(C)(=O)=O (stereo not shown) [Derivative 6, N-methyl-N-(3-phenyl-3-(4-(trifluoromethyl)phenoxy)propyl)methanesulfonamide]
- MMP1 concentration ([1]; 5 μM): significantly decreasd MMP1 concentrations
- MMP1 concentration ([1]; 10 μM): significantly decreasd MMP1 concentrations

Structure (SMILES): CNCC[C@H](Oc1cccc2ccccc12)c1cccs1 [Duloxetine]
- inhibition of cigarette smoke induced MMP-1 production (MMP-1 smoke induced transcriptional activation) [4]: potent inhibitors
- MMP1 in bronchoalveolar lavage fluid (ELISA) [5]: decreases MMP1 present in the BALF
- MMP1 in bronchoalveolar lavage fluid (ELISA) ([5]; listed as duloxetine): reduced MMP1 levels
- mean linear intercept (morphometric analysis) [5]: significantly reduced mean linear intercept
- mean linear intercept (morphometric analysis) ([5]; listed as duloxetine): decreased mean linear intercepts

Structure (SMILES): CNCCC(Oc1ccc(C(F)(F)F)cc1)c1ccccc1 (stereo not shown) [Fluoxetine]
- inhibition of cigarette smoke induced MMP-1 production (MMP-1 smoke induced transcriptional activation) [4]: potent inhibitors
- MMP1 present in the media (secretion) ([2]; 5% CSE exposed SAEC cultures): decreased MMP-1 expression and secretion; also recorded: decreases MMP1 present in the media
- expression of MMP1 transcript (PCR) ([2]; 5% CSE exposed SAEC cultures): decreased MMP-1 expression
- expression of MMP1 transcript (PCR) ([2]; 5% CSE exposed SAEC cultures, listed as fluoxetine): inhibits expression of MMP1 transcript
- TLR-4 expression [6]: decreased expression; also recorded: abrogates the CSE induced increase in TLR-4 expression
- phospho-IRAK (downstream effector of TLR-4) [6]: decreased expression; also recorded: abrogates
- inflammatory cell counts in lung lavage fluid (BALF) [7]: decreases the cell count
- inflammatory cell counts in lung lavage fluid (BALF) ([7]; listed as fluoxetine): decreased inflammatory cell counts
